Measurements from US20250145665A1, “MACROCYCLIC PEPTIDES USEFUL AS MODULATORS OF TNF ALPHA” (Bristol-Myers Squibb Company, priority 2023, published 2025).
Starred links: 1 amine or outer side, 2 acyl side, 3 side chain; linkers in the order of their positions; H or OH if unused. Positions of bridges follow the written chain, without caps; N, C: chain ends. Non-standard residues stand in square brackets, D forms with d. Residues, ends and D or L forms follow the SMILES beside them. Bip(4'-COOH) = N[C@@H](Cc1ccc(-c2ccc(C(=O)O)cc2)cc1)C(=O)O; Bip(4'-NHAc) = CC(=O)Nc1ccc(-c2ccc(C[C@H](N)C(=O)O)cc2)cc1; Phe(3-CH2NH2) = O=C([C@H](Cc1cccc(CN[*:3])c1)N[*:1])[*:2]; Ala(morpholin-4-yl) = N[C@@H](CN1CCOCC1)C(=O)O; Bip = N[C@@H](Cc1ccc(-c2ccccc2)cc1)C(=O)O; Morpholine(3S-CO) = O=C(O)[C@@H]1COCCN1; Bta = N[C@@H](Cc1csc2ccccc12)C(=O)O; Val(3-OH) = CC(C)(O)[C@H](N)C(=O)O; hArg = N=C(N)NCCCC[C@H](N)C(=O)O; 2Pal = N[C@@H](Cc1ccccn1)C(=O)O; Pip = O=C(O)[C@@H]1CCCCN1; Nle = CCCC[C@H](N)C(=O)O; Aze = O=C(O)[C@@H]1CCN1; Abu = CC[C@H](N)C(=O)O; Sar = CNCC(=O)O

target: TNFα (Homo sapiens, UniProt P01375); experiment: TNF-Induced HEK-Blue Assay; type: cell-based; settings: HEK-Blue-CD40L cells, NF-kB-driven secreted alkaline phosphatase reporter; TNFα 0.5 ng/ml; 18 h; read-out: TNF induced HEK-Blue assay IC50 value
Sequence (P01375 77-233 limits assumed): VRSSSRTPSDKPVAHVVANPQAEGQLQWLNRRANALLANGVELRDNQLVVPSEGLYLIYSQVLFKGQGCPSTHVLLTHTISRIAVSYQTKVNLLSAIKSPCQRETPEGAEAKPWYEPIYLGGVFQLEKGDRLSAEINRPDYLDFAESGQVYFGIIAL

| Compound | IC50 |
| --- | --- |
| CC(C)C[C@@H]1NC(=O)[C@H](Cc2csc3ccccc23)NC(=O)[C@H](C(C)C)NC(=O)[C@@H]2CCCN2C(=O)[C@H](C(C)C)NC(=O)[C@@H](CCCNC(=N)N)NC(=O)[C@H](CC(=O)O)NC(=O)[C@H](Cc2ccc(O)cc2)NC(=O)CN(C)C(=O)[C@H](Cc2ccc(-c3ccccc3)cc2)NC(=O)[C@H](Cc2ccc(-c3ccccc3)cc2)NC(=O)[C@H](CN2CCOCC2)NC(=O)CSC[C@@H](C(=O)NCC(N)=O)NC1=O [Example 158] ({CH2CO}-[Ala(morpholin-4-yl)][Bip][Bip][Sar]YD[dR]VPV[Bta]LCG-NH2; thioether N-13) | 200 to 2000 nM |
| CC(=O)Nc1ccc(-c2ccc(C[C@@H]3NC(=O)[C@H](Cc4ccc(-c5ccccc5)cc4)NC(=O)[C@H](CN4CCOCC4)NC(=O)CSC[C@@H](C(=O)NCC(N)=O)NC(=O)[C@H](CC(C)C)NC(=O)[C@H](CCCNC(=N)N)NC(=O)[C@H](C(C)(C)O)NC(=O)[C@@H]4CCCN4C(=O)[C@H](C(C)C)NC(=O)[C@@H](CCCNC(=N)N)NC(=O)[C@H](CC(=O)O)NC(=O)[C@@H]4CCCN4C(=O)CN(C)C3=O)cc2)cc1 [Example 160] ({CH2CO}-[Ala(morpholin-4-yl)][Bip][Bip(4'-NHAc)][Sar]PD[dR]VP[Val(3-OH)]RLCG-NH2; thioether N-13) | 50 to 200 nM |
| CC[C@@H]1NC(=O)[C@@H]2CCCN2C(=O)[C@H](C(C)C)NC(=O)[C@@H](CCCNC(=N)N)NC(=O)[C@H](CC(=O)O)NC(=O)[C@H](Cc2ccc(O)cc2)NC(=O)CN(C)C(=O)[C@H](Cc2ccc(-c3ccccc3)cc2)NC(=O)[C@H](Cc2ccc(-c3ccccc3)cc2)NC(=O)[C@H](CN2CCOCC2)NC(=O)CSC[C@@H](C(=O)NCC(N)=O)NC(=O)[C@H](CC(C)C)NC(=O)[C@H](Cc2ccc(O)cc2)NC1=O [Example 161] ({CH2CO}-[Ala(morpholin-4-yl)][Bip][Bip][Sar]YD[dR]VP[Abu]YLCG-NH2; thioether N-13) | 50 to 200 nM |
| CC(C)C[C@@H]1NC(=O)[C@H](Cc2ccc(O)cc2)NC(=O)[C@H](C)NC(=O)[C@@H]2CCCN2C(=O)[C@H](C(C)C)NC(=O)[C@@H](CCCNC(=N)N)NC(=O)[C@H](CC(=O)O)NC(=O)[C@H](Cc2ccc(O)cc2)NC(=O)CN(C)C(=O)[C@H](Cc2ccc(-c3ccccc3)cc2)NC(=O)[C@H](Cc2ccc(-c3ccccc3)cc2)NC(=O)[C@H](CN2CCOCC2)NC(=O)CSC[C@@H](C(=O)NCC(N)=O)NC1=O [Example 162] ({CH2CO}-[Ala(morpholin-4-yl)][Bip][Bip][Sar]YD[dR]VPAYLCG-NH2; thioether N-13) | 50 to 200 nM |
| CCCC[C@@H]1NC(=O)[C@@H]2CCCN2C(=O)[C@H](C(C)C)NC(=O)[C@@H](CCCNC(=N)N)NC(=O)[C@H](CC(=O)O)NC(=O)[C@H](Cc2ccc(O)cc2)NC(=O)CN(C)C(=O)[C@H](Cc2ccc(-c3ccccc3)cc2)NC(=O)[C@H](Cc2ccc(-c3ccccc3)cc2)NC(=O)[C@H](CN2CCOCC2)NC(=O)CSC[C@@H](C(=O)NCC(N)=O)NC(=O)[C@H](CC(C)C)NC(=O)[C@H](Cc2ccc(O)cc2)NC1=O [Example 163] ({CH2CO}-[Ala(morpholin-4-yl)][Bip][Bip][Sar]YD[dR]VP[Nle]YLCG-NH2; thioether N-13) | 200 to 2000 nM |
| CC(=O)Nc1ccc(-c2ccc(C[C@@H]3NC(=O)[C@H](Cc4ccc(-c5ccc(C(=O)O)cc5)cc4)NC(=O)[C@H](CN4CCOCC4)NC(=O)CSC[C@@H](C(=O)NCC(N)=O)NC(=O)[C@H](CC(C)C)NC(=O)[C@H](Cc4ccc(O)cc4)NC(=O)[C@H](C(C)C)NC(=O)[C@@H]4COCCN4C(=O)[C@H](C(C)C)NC(=O)[C@@H](CCCNC(=N)N)NC(=O)[C@H](CC(=O)O)NC(=O)[C@H](Cc4ccc(O)cc4)NC(=O)CN(C)C3=O)cc2)cc1 [Example 167] ({CH2CO}-[Ala(morpholin-4-yl)][Bip(4'-COOH)][Bip(4'-NHAc)][Sar]YD[dR]V[Morpholine(3S-CO)]VYLCG-NH2; thioether N-13) | 50 to 200 nM |
| CC(=O)Nc1ccc(-c2ccc(C[C@@H]3NC(=O)[C@H](Cc4ccc(-c5ccccc5)cc4)NC(=O)[C@H](CN4CCOCC4)NC(=O)CSC[C@@H](C(=O)NCC(N)=O)NC(=O)[C@H](CC(C)C)NC(=O)[C@H](Cc4ccc(O)cc4)NC(=O)[C@H](C(C)C)NC(=O)[C@@H]4CCN4C(=O)[C@H](C(C)C)NC(=O)[C@@H](CCCNC(=N)N)NC(=O)[C@H](CC(=O)O)NC(=O)[C@H](Cc4ccccn4)NC(=O)CN(C)C3=O)cc2)cc1 [Example 170] ({CH2CO}-[Ala(morpholin-4-yl)][Bip][Bip(4'-NHAc)][Sar][2Pal]D[dR]V[Aze]VYLCG-NH2; thioether N-13) | < 50 nM |
| CC(=O)Nc1ccc(-c2ccc(C[C@@H]3NC(=O)[C@H](Cc4ccc(-c5ccccc5)cc4)NC(=O)[C@H](CN4CCOCC4)NC(=O)CSC[C@@H](C(=O)NCC(N)=O)NC(=O)[C@H](CC(C)C)NC(=O)[C@H](Cc4cccc(CN)c4)NC(=O)[C@H](C(C)C)NC(=O)[C@@H]4CCCN4C(=O)[C@H](C(C)C)NC(=O)[C@@H](CCCNC(=N)N)NC(=O)[C@H](CC(=O)O)NC(=O)[C@H](Cc4ccccn4)NC(=O)CN(C)C3=O)cc2)cc1 [Example 171] ({CH2CO}-[Ala(morpholin-4-yl)][Bip][Bip(4'-NHAc)][Sar][2Pal]D[dR]VPV[Phe(3-CH2NH2)]LCG-NH2; thioether N-13) | < 50 nM |
| CC(=O)Nc1ccc(-c2ccc(C[C@@H]3NC(=O)[C@H](Cc4ccc(-c5ccccc5)cc4)NC(=O)[C@H](CN4CCOCC4)NC(=O)CSC[C@@H](C(=O)NCC(N)=O)NC(=O)[C@H](CC(C)C)NC(=O)[C@H](Cc4ccccn4)NC(=O)[C@H](C(C)C)NC(=O)[C@@H]4CCCN4C(=O)[C@H](C(C)C)NC(=O)[C@@H](CCCNC(=N)N)NC(=O)[C@H](CC(=O)O)NC(=O)[C@H](Cc4ccccn4)NC(=O)CN(C)C3=O)cc2)cc1 [Example 172] ({CH2CO}-[Ala(morpholin-4-yl)][Bip][Bip(4'-NHAc)][Sar][2Pal]D[dR]VPV[2Pal]LCG-NH2; thioether N-13) | < 50 nM |

Results, then the molecule that gave them:

| IC50 | Compound |
| --- | --- |
| < 50 nM | CC(C)C[C@@H]1NC(=O)[C@H](CCCCNC(=N)N)NC(=O)[C@H](C(C)C)NC(=O)[C@@H]2CCCN2C(=O)[C@H](C(C)C)NC(=O)[C@@H](CCCNC(=N)N)NC(=O)[C@H](CC(=O)O)NC(=O)[C@H](Cc2ccc(O)cc2)NC(=O)CN(C)C(=O)[C@H](Cc2ccc(-c3ccccc3)cc2)NC(=O)[C@H](Cc2ccc(-c3ccccc3)cc2)NC(=O)[C@H](CN2CCOCC2)NC(=O)CSC[C@@H](C(=O)NCC(N)=O)NC1=O [Example 159] ({CH2CO}-[Ala(morpholin-4-yl)][Bip][Bip][Sar]YD[dR]VPV[hArg]LCG-NH2; thioether N-13) |
| < 50 nM | CC(=O)Nc1ccc(-c2ccc(C[C@@H]3NC(=O)[C@H](Cc4ccc(-c5ccc(C(=O)O)cc5)cc4)NC(=O)[C@H](CN4CCOCC4)NC(=O)CSC[C@@H](C(=O)NCC(N)=O)NC(=O)[C@H](CC(C)C)NC(=O)[C@H](Cc4ccc(O)cc4)NC(=O)[C@H](C(C)C)NC(=O)[C@@H]4CCCN4C(=O)[C@H](C(C)C)NC(=O)[C@@H](CCCNC(=N)N)NC(=O)[C@H](CC(=O)O)NC(=O)[C@H](Cc4ccc(O)cc4)NC(=O)CN(C)C3=O)cc2)cc1 [Example 164] ({CH2CO}-[Ala(morpholin-4-yl)][Bip(4'-COOH)][Bip(4'-NHAc)][Sar]YD[dR]VPVYLCG-NH2; thioether N-13) |
| < 50 nM | CC(=O)Nc1ccc(-c2ccc(C[C@@H]3NC(=O)[C@H](Cc4ccc(-c5ccc(C(=O)O)cc5)cc4)NC(=O)[C@H](CN4CCOCC4)NC(=O)CSC[C@@H](C(=O)NCC(N)=O)NC(=O)[C@H](CC(C)C)NC(=O)[C@H](CCCNC(=N)N)NC(=O)[C@H](C(C)C)NC(=O)[C@@H]4CCCN4C(=O)[C@H](C(C)C)NC(=O)[C@@H](CCCNC(=N)N)NC(=O)[C@H](CC(=O)O)NC(=O)[C@@H]4CCCN4C(=O)CN(C)C3=O)cc2)cc1 [Example 165] ({CH2CO}-[Ala(morpholin-4-yl)][Bip(4'-COOH)][Bip(4'-NHAc)][Sar]PD[dR]VPVRLCG-NH2; thioether N-13) |
| < 50 nM | CC(=O)Nc1ccc(-c2ccc(C[C@@H]3NC(=O)[C@H](Cc4ccc(-c5ccc(C(=O)O)cc5)cc4)NC(=O)[C@H](CN4CCOCC4)NC(=O)CSC[C@@H](C(=O)NCC(N)=O)NC(=O)[C@H](CC(C)C)NC(=O)[C@H](Cc4ccc(O)cc4)NC(=O)[C@H](C(C)C)NC(=O)[C@@H]4CCN4C(=O)[C@H](C(C)C)NC(=O)[C@@H](CCCNC(=N)N)NC(=O)[C@H](CC(=O)O)NC(=O)[C@H](Cc4ccc(O)cc4)NC(=O)CN(C)C3=O)cc2)cc1 [Example 166] ({CH2CO}-[Ala(morpholin-4-yl)][Bip(4'-COOH)][Bip(4'-NHAc)][Sar]YD[dR]V[Aze]VYLCG-NH2; thioether N-13) |
| < 50 nM | CC(=O)Nc1ccc(-c2ccc(C[C@@H]3NC(=O)[C@H](Cc4ccc(-c5ccc(C(=O)O)cc5)cc4)NC(=O)[C@H](CN4CCOCC4)NC(=O)CSC[C@@H](C(=O)NCC(N)=O)NC(=O)[C@H](CC(C)C)NC(=O)[C@H](Cc4ccc(O)cc4)NC(=O)[C@H](C(C)C)NC(=O)[C@@H]4CCCCN4C(=O)[C@H](C(C)C)NC(=O)[C@@H](CCCNC(=N)N)NC(=O)[C@H](CC(=O)O)NC(=O)[C@H](Cc4ccc(O)cc4)NC(=O)CN(C)C3=O)cc2)cc1 [Example 168] ({CH2CO}-[Ala(morpholin-4-yl)][Bip(4'-COOH)][Bip(4'-NHAc)][Sar]YD[dR]V[Pip]VYLCG-NH2; thioether N-13) |
| < 50 nM | CC(=O)Nc1ccc(-c2ccc(C[C@@H]3NC(=O)[C@H](Cc4ccc(-c5ccccc5)cc4)NC(=O)[C@H](CN4CCOCC4)NC(=O)CSC[C@@H](C(=O)N[C@@H](CCCCN)C(=O)O)NC(=O)[C@H](CC(C)C)NC(=O)[C@H](CCCNC(=N)N)NC(=O)[C@H](C(C)C)NC(=O)[C@@H]4CCCN4C(=O)[C@H](C(C)C)NC(=O)[C@@H](CCCNC(=N)N)NC(=O)[C@H](CC(=O)O)NC(=O)[C@@H]4CCCN4C(=O)CN(C)C3=O)cc2)cc1 [Example 169] ({CH2CO}-[Ala(morpholin-4-yl)][Bip][Bip(4'-NHAc)][Sar]PD[dR]VPVRLCK-OH; thioether N-13) |
